According to patent publication US10028961B2, “Therapeutically active compounds and their methods of use” (AGIOS PHARMACEUTICALS, INC., priority 2013, dated 2018):

What was measured:
IDH1 R132C = IDH1 R132C (Homo sapiens (Human), UniProt O75874, R132C); assay: In vitro assay IDH1 R132C homodimer, NADPH depletion assay; type: biochemical
Experimental: (§1) The following describes the experimental procedures that can be used to obtain data on columns 3 and 6 of Table 4.
(§2) A test compound is prepared as 10 mM stock in DMSO and diluted to 50× final concentration in DMSO, for a 50 μl reaction mixture. IDH enzyme activity converting alpha-ketoglutarate to 2-hydroxyglutaric acid is measured using a NADPH depletion assay. In the assay the remaining cofactor is measured at the end of the reaction with the addition of a catalytic excess of diaphorase and resazurin, to generate a fluorescent signal in proportion to the amount of NADPH remaining. […] The reaction is started with the addition of 10 μl of Substrate Mix ([…], 5 mM alpha-ketoglutarate, in Assay Buffer) and the mixture is incubated for 90 minutes at room temperature.
The concentration of NADPH and alpha-ketoglutarate in the Substrate Buffer is 20 μM and 1 mM, respectively.

[1] = target: IDH1-R132 homodimer enzyme (R132H) (Homo sapiens (Human), UniProt O75874, R132H); assay: In vitro assay IDH1-R132H homodimer, NADPH depletion assay; type: biochemical
Sequence of IDH1-R132 homodimer enzyme (R132H) (O75874 whole entry R132H): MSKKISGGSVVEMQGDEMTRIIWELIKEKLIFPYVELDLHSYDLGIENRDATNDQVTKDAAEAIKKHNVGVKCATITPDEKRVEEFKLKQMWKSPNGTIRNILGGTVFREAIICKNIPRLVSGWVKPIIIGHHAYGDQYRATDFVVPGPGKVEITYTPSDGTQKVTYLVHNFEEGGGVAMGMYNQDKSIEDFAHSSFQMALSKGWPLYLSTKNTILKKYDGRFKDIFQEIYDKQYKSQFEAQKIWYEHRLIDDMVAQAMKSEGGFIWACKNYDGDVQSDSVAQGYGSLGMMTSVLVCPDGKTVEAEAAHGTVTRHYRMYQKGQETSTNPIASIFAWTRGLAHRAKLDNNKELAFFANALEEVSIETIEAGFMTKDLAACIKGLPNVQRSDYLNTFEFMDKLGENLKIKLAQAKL
Experimental: as §1, §2

HT1080 cells = assay: Cellular assay for IDH1m R132C inhibitors, 2-HG by LC-MS in HT1080 cells; type: cell-based; conditions: Homo sapiens, HT-1080
In short: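 HT1080 cells at 5000 cells/well were treated with compound (0.2% DMSO final). After 48 h, 2-HG in the medium was measured by LC-MS. Viability was read by CellTiter-Glo luminescence at 72 h.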

[2] = target: IDH1-R132H homodimer enzyme (Homo sapiens (Human), UniProt O75874, R132H); assay: In vitro assay IDH1-R132H homodimer, NADPH depletion assay with NADPH/NADP preincubation; type: biochemical; conditions: 5 μM NADPH and 37.5 μM NADP
Sequence of IDH1-R132H homodimer enzyme (O75874 whole entry R132H): as above
In short: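 Conversion of alpha-ketoglutarate to 2-hydroxyglutarate tracked by NADPH depletion. Reaction started with 5 mM alpha-ketoglutarate plus NADPH substrate mix (50 μl total), 60 min at room temperature. Leftover NADPH quantified via diaphorase/resazurin fluorescence.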

IDH2 R140Q = IDH2 R140Q (Homo sapiens (Human), UniProt P48735, R140Q); assay: In vitro assay for IDH2m R140Q inhibitors, cofactor depletion assay; type: biochemical; conditions: IDH2 R140Q enzyme
Sequence of IDH2 R140Q (P48735 40-452 R140Q): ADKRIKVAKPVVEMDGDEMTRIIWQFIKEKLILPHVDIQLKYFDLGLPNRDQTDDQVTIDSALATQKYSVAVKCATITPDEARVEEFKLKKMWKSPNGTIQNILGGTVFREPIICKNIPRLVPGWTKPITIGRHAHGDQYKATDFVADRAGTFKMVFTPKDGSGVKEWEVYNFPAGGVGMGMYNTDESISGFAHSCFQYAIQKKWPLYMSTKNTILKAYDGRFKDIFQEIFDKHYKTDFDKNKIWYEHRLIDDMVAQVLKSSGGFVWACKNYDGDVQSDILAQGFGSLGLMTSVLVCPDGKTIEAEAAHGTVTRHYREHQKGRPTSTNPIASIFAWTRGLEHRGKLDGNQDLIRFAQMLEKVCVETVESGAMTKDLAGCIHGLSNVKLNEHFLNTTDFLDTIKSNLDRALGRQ
In short: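 Remaining cofactor measured fluorimetrically: diaphorase/resazurin Stop Mix […], halting the reaction. Before that, mutant enzyme and compound sat 1 h at RT, then substrate mix (4 μM NADPH, 1.6 mM α-KG) was added for 16 h at RT.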

[3] = system: U87MG pLVX-IDH2 R140Q-neo cells; assay: U87MG pLVX-IDH2 R140Q-neo cell based assay, 2-HG by LC-MS; conditions: Homo sapiens, U-87 MG
[4] = target: IDH1 wt/IDH1 R132H heterodimer (Homo sapiens (Human), UniProt O75874, R132H); assay: In vitro assay for IDH1m R132H inhibitors, IDH1 wt/IDH1 R132H heterodimer, NADPH depletion (diaphorase/resazurin); type: biochemical; conditions: IDH1 wt/R132H heterodimer, NADPH/NADP, not saturated; read-out: IDH1 wt/R132H NADPH/NADP IC50 not saturated
Sequence of IDH1 wt/IDH1 R132H heterodimer (O75874 whole entry R132H): as the sequence (O75874 whole entry R132H) above
Sequence of IDH1 wt/IDH1 R132H heterodimer (O75874 whole entry, stated change not applied): as the sequence (O75874 whole entry R132H) above, with H132R counted along it
In short: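 Purified IDH1wt-his/IDH1R132H-flag heterodimer (sf9 co-expression) pre-incubated 1 hr at room temperature with compound and NADPH before α-KG addition. Remaining NADPH read by diaphorase/resazurin conversion to fluorescent resorufin, 5 min at 25° C. Compounds diluted 1:50 from DMSO; IC50 determined.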

Sequence of IDH1 R132C (O75874 whole entry R132C): as the sequence (O75874 whole entry R132H) above, with H132C counted along it

Compound | IC50 (IDH1 R132C) [µM] | IC50 [1] [µM] | IC50 (HT1080 cells) [µM] | IC50 [2] [µM] | IC50 (IDH2 R140Q) [µM] | IC50 [4] [µM] | IDH1 R132H IC50 [1] | IC50 [3] [µM]
CC(C)[C@H](C)Nc1nc(N[C@@H](C)C(C)C)nc(-c2cccc(C(F)(F)F)n2)n1 [Compound 17] | 0.05 to 0.1 | 0.05 to 0.1 | < 0.05 | – | – | – | – | –
FC(F)(F)c1cccc(-c2nc(NCC3CC3)nc(NCC3CC3)n2)n1 [Compound 1] | > 1 | > 1 | – | – | < 0.05 | – | – | < 0.05
CC(C)[C@@H](C)Nc1nc(N[C@H](C)C(C)C)nc(-c2cccc(C(F)(F)F)n2)n1 [Compound 18] | 0.05 to 0.1 | < 0.05 | 0.05 to 0.1 | – | – | – | – | –
CC(C)C(C)Nc1nc(NC(C)C(C)C)nc(-c2cccc(C(F)(F)F)n2)n1 (centres unmarked) [Compound 13] | 0.05 to 0.1 | < 0.05 | < 0.05 | – | – | – | – | –
FC(F)(F)c1cccc(-c2nc(NCC3CCC3)nc(NCC3CCC3)n2)n1 [Compound 7] | > 1 | 0.1 to 1 | – | – | < 0.05 | – | – | –
CC(O)CNc1nc(NCC(C)O)nc(-c2cccc(C(F)(F)F)n2)n1 (centres unmarked) [Compound 14] | > 1 | > 1 | – | – | > 1 | – | – | –
CC(O)CNc1nc(N[C@H](C)C2CC2)nc(-c2cccc(C(F)(F)F)n2)n1 (stereo partly drawn) [Compound 12, 1-(4-((R)-1-cyclopropylethylamino)-6-(6-(trifluoromethyl)pyridin-2-yl)-1,3,5-triazin-2-ylamino)propan-2-ol] | > 1 | > 1 | – | – | 0.05 to 0.1 | – | – | –
COc1ccc(F)c(-c2nc(N[C@H](C)C3CC3)nc(N[C@H](C)C3CC3)n2)c1 [Compound 8] | > 1 | – | – | – | 0.05 to 0.1 | – | No Fit | –
C[C@@H](Nc1nc(NCC(C)(C)O)nc(-c2cccc(C(F)(F)F)n2)n1)C1CC1 (stereo in doubt) [Compound 10, 1-(4-(1-cyclopropylethylamino)-6-(6-(trifluoromethyl)pyridin-2-yl)-1,3,5-triazin-2-ylamino)-2-methylpropan-2-ol] | > 1 | > 1 | – | – | 0.05 to 0.1 | – | – | –
FC(F)(F)c1cccc(-c2nc(NC3CCC3)nc(NC3CCC3)n2)n1 [Compound 9] | 0.1 to 1 | 0.05 to 0.1 | – | – | < 0.05 | – | – | –

The next lines start with results.

IC50 (IDH1 R132C) [µM] | IC50 [1] [µM] | IC50 (HT1080 cells) [µM] | IC50 [2] [µM] | IC50 (IDH2 R140Q) [µM] | IC50 [4] [µM] | IDH1 R132H IC50 [1] | Compound | IC50 [3] [µM]
0.05 to 0.1 | < 0.05 | < 0.05 | – | – | – | – | C[C@H](Nc1nc(N[C@H](C)C2CC2)nc(-c2cccc(C(F)(F)F)n2)n1)C1CC1 [Compound 34] | –
> 1 | 0.1 to 1 | – | 0.1 to 1 | – | – | – | C[C@@H](Nc1cc(NC(C)(C)C)nc(-c2cccc(C(F)(F)F)n2)n1)C1CC1 [Compound 417] | –
> 1 | > 1 | – | – | < 0.05 | – | – | C[C@@H](Nc1nc(NCc2ccccc2)nc(-c2cccc(C(F)(F)F)n2)n1)C1CC1 [Compound 21] | –
0.05 to 0.1 | 0.05 to 0.1 | 0.05 to 0.1 | – | – | – | – | C[C@@H](Nc1nc(N[C@H](C)C2CCC2)nc(-c2cccc(C(F)(F)F)n2)n1)C1CCC1 [Compound 19] | –
> 1 | 0.1 to 1 | – | – | < 0.05 | – | – | C[C@H](Nc1nc(N[C@H](C)c2ccccc2)nc(-c2cccc(C(F)(F)F)n2)n1)c1ccccc1 [Compound 26] | –
0.05 to 0.1 | 0.05 to 0.1 | – | – | < 0.05 | < 0.05 | – | CC(Nc1nc(N[C@H](C)C2CC2)nc(-c2cccc(C(F)(F)F)n2)n1)c1ccccc1 (single isomer, unassigned) [Compound 20] | –
0.05 to 0.1 | < 0.05 | 0.05 to 0.1 | – | – | – | – | CCCC(C)Nc1nc(N[C@H](C)C2CC2)nc(-c2cccc(C(F)(F)F)n2)n1 (some centres unmarked) [Compound 39] | –
0.05 to 0.1 | < 0.05 | < 0.05 | – | – | – | – | C[C@H](Nc1nc(N[C@@H](C)C2CC2)nc(-c2cccc(C(F)(F)F)n2)n1)C1CC1 [Compound 33] | –
0.1 to 1 | 0.05 to 0.1 | – | – | < 0.05 | – | – | C[C@@H](Nc1nc(N[C@H](C)C2CC2)nc(-c2cccc(C(F)(F)F)n2)n1)c1ccccc1 [Compound 22] | –
0.1 to 1 | 0.05 to 0.1 | – | – | 0.05 to 0.1 | – | – | C[C@@H](Nc1nc(NC2(c3ccccc3)CC2)nc(-c2cccc(C(F)(F)F)n2)n1)C1CC1 [Compound 30] | –
